Legend:
[1] = target: T1, Neuronal acetylcholine receptor; alpha3/beta4 (Homo sapiens, UniProt P30926+P32297); test: Agonist activity at human alpha3beta4 nAChR expressed in CHO cells assessed as calcium flux by calcium4-based FLIPR assay relative to nicotine; assay type: functional, cell-based
[2] = target: T1, Neuronal acetylcholine receptor; alpha3/beta4; test: Agonist activity at human alpha3beta4 nAChR expressed in CHO cells assessed as calcium flux by calcium4-based FLIPR assay; assay type: functional, cell-based
[3] = target: T2, Neuronal acetylcholine receptor; alpha4/beta2 (Homo sapiens, UniProt P17787+P43681); test: Agonist activity at alpha4beta2 nAChR in human SH-EP1 cells assessed as calcium flux by calcium4-based FLIPR assay relative to nicotine; assay type: functional, cell-based
[4] = target: T2, Neuronal acetylcholine receptor; alpha4/beta2; test: Agonist activity at alpha4beta2 nAChR in human SH-EP1 cells assessed as calcium flux by calcium4-based FLIPR assay; assay type: functional, cell-based
[5] = target: Neuronal acetylcholine receptor subunit alpha-7 (Homo sapiens, UniProt P36544); test: Displacement of [3H]epibatidine from human alpha7 nAChR expressed in CHO cells after 2 hrs by liquid scintillation counting; assay type: cell-based
[6] = target: T1, Neuronal acetylcholine receptor; alpha3/beta4; test: Displacement of [3H]epibatidine from human alpha3beta4 nAChR expressed in CHO cells after 2 hrs by liquid scintillation counting; assay type: cell-based
[7] = target: Neuronal acetylcholine receptor; alpha4/beta2 (Rattus norvegicus, UniProt P09483+P12390); test: Displacement of [3H]epibatidine from alpha4beta2 nAChR in Sprague-Dawley rat cortex after 2 hrs by liquid scintillation counting
[8] = target: T2, Neuronal acetylcholine receptor; alpha4/beta2; test: Displacement of [3H]nicotine from alpha4beta2 nAChR in human SH-EP1 cells after 2 hrs by liquid scintillation assay; assay type: cell-based

Sequence of Neuronal acetylcholine receptor subunit alpha-7 (P36544 whole entry): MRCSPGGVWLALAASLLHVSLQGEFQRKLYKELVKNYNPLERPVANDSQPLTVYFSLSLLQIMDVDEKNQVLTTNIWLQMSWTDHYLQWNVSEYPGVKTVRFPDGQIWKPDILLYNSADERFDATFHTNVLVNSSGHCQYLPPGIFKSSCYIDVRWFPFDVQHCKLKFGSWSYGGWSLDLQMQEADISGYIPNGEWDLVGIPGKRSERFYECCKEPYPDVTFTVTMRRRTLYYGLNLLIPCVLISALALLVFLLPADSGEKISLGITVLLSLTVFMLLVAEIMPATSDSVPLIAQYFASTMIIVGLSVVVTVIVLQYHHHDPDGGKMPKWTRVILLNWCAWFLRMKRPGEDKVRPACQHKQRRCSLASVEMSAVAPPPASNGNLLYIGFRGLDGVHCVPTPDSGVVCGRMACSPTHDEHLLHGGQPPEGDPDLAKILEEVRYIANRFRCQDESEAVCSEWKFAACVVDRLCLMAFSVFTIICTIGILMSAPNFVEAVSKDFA
T2 sequence (P17787 whole entry): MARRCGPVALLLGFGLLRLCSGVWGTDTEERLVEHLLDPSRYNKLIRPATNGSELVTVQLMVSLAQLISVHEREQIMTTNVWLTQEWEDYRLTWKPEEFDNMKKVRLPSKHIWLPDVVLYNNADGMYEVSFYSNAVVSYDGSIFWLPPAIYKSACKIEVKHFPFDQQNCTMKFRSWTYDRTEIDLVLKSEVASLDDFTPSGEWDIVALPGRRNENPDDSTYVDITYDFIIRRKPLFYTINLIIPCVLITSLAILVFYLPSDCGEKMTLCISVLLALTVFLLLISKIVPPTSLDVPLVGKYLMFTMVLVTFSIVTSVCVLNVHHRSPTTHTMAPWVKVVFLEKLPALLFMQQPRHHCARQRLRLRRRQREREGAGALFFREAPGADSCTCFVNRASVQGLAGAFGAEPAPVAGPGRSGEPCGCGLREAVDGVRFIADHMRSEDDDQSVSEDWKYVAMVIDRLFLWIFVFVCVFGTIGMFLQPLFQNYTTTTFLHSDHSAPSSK
T2 sequence (P43681 whole entry): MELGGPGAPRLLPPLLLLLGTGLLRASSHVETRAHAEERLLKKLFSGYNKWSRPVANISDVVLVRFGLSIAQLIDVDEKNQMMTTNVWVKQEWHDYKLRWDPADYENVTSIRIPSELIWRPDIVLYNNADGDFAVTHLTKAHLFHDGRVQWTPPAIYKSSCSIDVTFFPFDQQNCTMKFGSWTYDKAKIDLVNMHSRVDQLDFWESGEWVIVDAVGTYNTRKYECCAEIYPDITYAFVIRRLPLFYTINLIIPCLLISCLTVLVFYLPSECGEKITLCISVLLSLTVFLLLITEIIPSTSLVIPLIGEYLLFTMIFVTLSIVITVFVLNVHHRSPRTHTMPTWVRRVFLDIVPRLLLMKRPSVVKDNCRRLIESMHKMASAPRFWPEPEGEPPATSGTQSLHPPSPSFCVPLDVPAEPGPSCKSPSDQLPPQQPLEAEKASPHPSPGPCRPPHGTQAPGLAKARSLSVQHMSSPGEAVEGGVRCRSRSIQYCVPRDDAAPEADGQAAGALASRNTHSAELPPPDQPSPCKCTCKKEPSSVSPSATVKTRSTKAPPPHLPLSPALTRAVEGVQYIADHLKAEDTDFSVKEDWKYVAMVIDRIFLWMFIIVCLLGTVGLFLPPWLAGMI
Sequence of Neuronal acetylcholine receptor; alpha4/beta2 (Rattus norvegicus, UniProt P09483+P12390) (P09483 whole entry): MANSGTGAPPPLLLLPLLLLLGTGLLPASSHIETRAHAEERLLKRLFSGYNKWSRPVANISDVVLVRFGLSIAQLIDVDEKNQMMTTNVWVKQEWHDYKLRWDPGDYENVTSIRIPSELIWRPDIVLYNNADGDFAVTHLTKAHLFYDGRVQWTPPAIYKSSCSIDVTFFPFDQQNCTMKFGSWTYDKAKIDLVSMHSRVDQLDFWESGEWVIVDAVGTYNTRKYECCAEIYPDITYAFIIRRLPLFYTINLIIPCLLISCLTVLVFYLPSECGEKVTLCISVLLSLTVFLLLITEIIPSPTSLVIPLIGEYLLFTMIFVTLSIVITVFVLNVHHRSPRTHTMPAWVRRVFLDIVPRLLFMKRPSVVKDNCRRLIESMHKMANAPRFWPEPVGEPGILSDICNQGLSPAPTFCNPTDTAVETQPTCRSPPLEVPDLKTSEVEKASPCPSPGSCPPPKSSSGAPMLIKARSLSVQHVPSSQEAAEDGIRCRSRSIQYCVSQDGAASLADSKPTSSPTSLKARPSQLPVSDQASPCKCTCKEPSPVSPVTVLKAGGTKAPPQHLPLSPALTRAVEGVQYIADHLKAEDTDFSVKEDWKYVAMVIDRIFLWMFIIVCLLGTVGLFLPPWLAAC
Sequence of Neuronal acetylcholine receptor; alpha4/beta2 (Rattus norvegicus, UniProt P09483+P12390) (P12390 whole entry): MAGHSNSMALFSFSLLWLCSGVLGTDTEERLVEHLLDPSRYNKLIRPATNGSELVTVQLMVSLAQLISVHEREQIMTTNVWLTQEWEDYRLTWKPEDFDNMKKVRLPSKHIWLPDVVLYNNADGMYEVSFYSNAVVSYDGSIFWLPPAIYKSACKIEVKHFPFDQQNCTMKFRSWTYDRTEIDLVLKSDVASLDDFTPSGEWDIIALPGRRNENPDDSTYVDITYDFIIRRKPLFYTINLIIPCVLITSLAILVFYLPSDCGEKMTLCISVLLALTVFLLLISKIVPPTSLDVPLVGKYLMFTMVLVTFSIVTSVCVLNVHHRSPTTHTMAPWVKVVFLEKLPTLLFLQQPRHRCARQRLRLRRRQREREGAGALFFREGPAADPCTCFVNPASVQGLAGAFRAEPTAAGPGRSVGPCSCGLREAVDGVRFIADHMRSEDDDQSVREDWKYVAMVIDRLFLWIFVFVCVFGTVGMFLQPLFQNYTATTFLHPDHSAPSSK
T1 sequence (P30926 whole entry): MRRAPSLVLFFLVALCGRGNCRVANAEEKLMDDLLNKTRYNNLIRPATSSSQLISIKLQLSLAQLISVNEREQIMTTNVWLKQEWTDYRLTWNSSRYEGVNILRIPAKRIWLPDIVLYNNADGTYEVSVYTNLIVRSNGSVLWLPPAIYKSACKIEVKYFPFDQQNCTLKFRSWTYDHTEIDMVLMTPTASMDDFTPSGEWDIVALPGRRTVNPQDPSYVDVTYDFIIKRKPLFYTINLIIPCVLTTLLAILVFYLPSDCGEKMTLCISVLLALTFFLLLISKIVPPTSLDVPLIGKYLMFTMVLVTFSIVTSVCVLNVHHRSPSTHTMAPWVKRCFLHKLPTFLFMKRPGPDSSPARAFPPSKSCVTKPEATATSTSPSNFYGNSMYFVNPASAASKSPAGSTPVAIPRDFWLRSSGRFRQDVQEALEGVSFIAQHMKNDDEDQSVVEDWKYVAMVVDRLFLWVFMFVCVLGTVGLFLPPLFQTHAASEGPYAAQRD
T1 sequence (P32297 whole entry): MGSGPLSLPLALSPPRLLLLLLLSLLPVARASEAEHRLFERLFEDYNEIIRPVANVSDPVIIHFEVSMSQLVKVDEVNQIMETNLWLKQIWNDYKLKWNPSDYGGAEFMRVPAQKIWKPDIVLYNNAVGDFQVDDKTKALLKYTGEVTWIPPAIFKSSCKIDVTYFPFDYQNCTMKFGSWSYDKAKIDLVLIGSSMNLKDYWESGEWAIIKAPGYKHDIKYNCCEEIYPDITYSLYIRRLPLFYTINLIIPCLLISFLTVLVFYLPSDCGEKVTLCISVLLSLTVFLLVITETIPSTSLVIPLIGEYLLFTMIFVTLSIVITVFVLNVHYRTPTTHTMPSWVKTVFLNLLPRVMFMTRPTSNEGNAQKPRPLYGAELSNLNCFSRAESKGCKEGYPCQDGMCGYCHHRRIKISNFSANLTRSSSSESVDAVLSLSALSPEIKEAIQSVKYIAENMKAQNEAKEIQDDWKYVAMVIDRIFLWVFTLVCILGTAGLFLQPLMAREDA

O=C(C1CC1)N1C[C@@H]2CN[C@H](C2)C1
Emax [1]: 180%
EC50 [2]: 1.8 µM
Emax [3]: 130%
EC50 [4]: 0.45 µM
Ki [5]: 0.21 µM
Ki [6]: 0.2 µM
Ki [7]: 22 nM
Ki [8]: 1 nM

O=C(c1ccc(Br)o1)N1CC2CNCC2C1 (stereo not drawn)
Emax [1]: 25%
EC50 [2]: 29 µM
Emax [3]: 40%
EC50 [4]: 22 µM
Ki [5]: > 10 µM
Ki [6]: 7.2 µM
Ki [7]: 240 nM
Ki [8]: 74 nM

O=C(c1ccoc1)N1CC2CNCC2C1 (stereo not drawn)
Emax [1]: 31%
EC50 [2]: 35 µM
Emax [3]: 110%
EC50 [4]: 5.8 µM
Ki [5]: 100 µM
Ki [6]: 4.8 µM
Ki [8]: 19 nM

O=C(c1cc(F)co1)N1CC2CNCC2C1 (stereo not drawn)
Emax [1]: 17%
EC50 [2]: 36 µM
Emax [3]: 130%
EC50 [4]: 1.4 µM
Ki [5]: > 10 µM
Ki [6]: 8.3 µM
Ki [8]: 32 nM

O=C(c1ccco1)N1CC2CNCC2C1 (stereo not drawn)
Emax [1]: 32%
EC50 [2]: 42 µM
Emax [3]: 170%
EC50 [4]: 4.5 µM
Ki [5]: 5.9 µM
Ki [6]: 72 µM
Ki [7]: 53 nM

N#Cc1coc(C(=O)N2CC3CNCC3C2)c1 (stereo not drawn)
Emax [1]: 21%
EC50 [2]: 31 µM
Emax [3]: 22%
EC50 [4]: 11 µM
Ki [5]: 8.6 µM
Ki [6]: 8.7 µM
Ki [7]: 120 nM
Ki [8]: 27 nM

O=C(c1ccc(F)o1)N1C[C@@H]2CN[C@H](C2)C1
Emax [1]: 110%
EC50 [2]: 6.9 µM
Emax [3]: 110%
EC50 [4]: 2.1 µM
Ki [5]: 14 µM
Ki [6]: 0.9 µM
Ki [7]: 17 nM
Ki [8]: 5 nM

O=C(c1ccc(Cl)o1)N1C[C@H]2CN[C@@H](C2)C1
Emax [1]: 100%
EC50 [2]: 14 µM
Emax [3]: 92%
EC50 [4]: 3 µM
Ki [5]: 14 µM
Ki [6]: 5.2 µM
Ki [7]: 120 nM
Ki [8]: 16 nM

O=C(c1ccc(Br)o1)N1C[C@@H]2CN[C@H](C2)C1
Emax [1]: 61%
EC50 [2]: 16 µM
Emax [3]: 27%
EC50 [4]: 12 µM
Ki [5]: 8.2 µM
Ki [6]: 1.5 µM
Ki [7]: 57 nM
Ki [8]: 9 nM

O=C(c1ccncc1)N1CC2CNCC(C2)C1
Emax [1]: 6%
EC50 [2]: 54 µM
Emax [3]: 7%
EC50 [4]: 19 µM
Ki [5]: > 10 µM
Ki [6]: > 10 µM
Ki [7]: 57 nM
Ki [8]: 37 nM

O=C(c1ccncc1)N1CC2CNCC2C1 (stereo not drawn)
Emax [1]: 33%
EC50 [2]: 32 µM
Emax [3]: 56%
EC50 [4]: 21 µM
Ki [5]: 15 µM
Ki [6]: 5.4 µM
Ki [7]: 20 nM
Ki [8]: 67 nM

O=C(c1occc1F)N1CC2CNCC2C1 (stereo not drawn)
Emax [1]: 35%
EC50 [2]: 44 µM
Emax [3]: 96%
EC50 [4]: 4.8 µM
Ki [5]: > 10 µM
Ki [6]: 6.5 µM
Ki [7]: 54 nM
Ki [8]: 23 nM

O=C(C1CC1)N1CC2CNCC(C2)C1
Emax [1]: 160%
EC50 [2]: 1.2 µM
Emax [3]: 46%
EC50 [4]: 0.85 µM
Ki [5]: 0.02 µM
Ki [6]: 0.11 µM
Ki [7]: 2 nM
Ki [8]: 1 nM

Cc1ccoc1C(=O)N1CC2CNCC2C1 (stereo not drawn)
Emax [1]: 40%
EC50 [2]: 23 µM
Emax [3]: 64%
EC50 [4]: 14 µM
Ki [5]: 3.7 µM
Ki [6]: 2.2 µM
Ki [7]: 22 nM
Ki [8]: 32 nM

O=C(c1ccc(F)o1)N1C[C@H]2CN[C@@H](C2)C1
Emax [1]: 120%
EC50 [2]: 4 µM
Emax [3]: 120%
EC50 [4]: 1.7 µM
Ki [5]: 1.6 µM
Ki [6]: 0.6 µM
Ki [7]: 120 nM
Ki [8]: 12 nM

O=C(c1occc1Cl)N1CC2CNCC2C1 (stereo not drawn)
Emax [1]: 110%
EC50 [2]: 22 µM
Emax [3]: 79%
EC50 [4]: 17 µM
Ki [5]: 2.6 µM
Ki [6]: 2.4 µM
Ki [7]: 12 nM
Ki [8]: 2 nM

COc1ccc(C(=O)N2CC3CNCC3C2)cc1 (stereo not drawn)
Emax [1]: 22%
EC50 [2]: 31 µM
Emax [3]: 9%
EC50 [4]: 43 µM
Ki [5]: 100 µM
Ki [6]: 8.4 µM
Ki [7]: 140 nM
Ki [8]: 26 nM

N#Cc1ccc(C(=O)N2CC3CNCC3C2)o1 (stereo not drawn)
Emax [1]: 14%
EC50 [2]: 61 µM
Emax [3]: 90%
EC50 [4]: 24 µM
Ki [5]: > 10 µM
Ki [6]: 4.8 µM
Ki [8]: 53 nM

N#Cc1ccoc1C(=O)N1CC2CNCC2C1 (stereo not drawn)
Emax [1]: 96%
EC50 [2]: 22 µM
Emax [3]: 76%
EC50 [4]: 100 µM
Ki [5]: 8.8 µM
Ki [6]: 3.2 µM
Ki [7]: 68 nM
Ki [8]: 13 nM

O=C(c1ccncc1)N1CC2CNC(C2)C1 (stereo not drawn)
Emax [1]: 110%
EC50 [2]: 9.2 µM
Emax [3]: 8%
EC50 [4]: 42 µM
Ki [5]: 1.3 µM
Ki [6]: 1.5 µM
Ki [7]: 25 nM

O=C(c1ccco1)N1C[C@H]2CN[C@@H](C2)C1
Emax [1]: 120%
EC50 [2]: 17 µM
Emax [3]: 83%
EC50 [4]: 4.7 µM
Ki [5]: 0.56 µM
Ki [6]: 1.7 µM
Ki [7]: 97 nM
Ki [8]: 15 nM

O=C(c1cnco1)N1CC2CNCC2C1 (stereo not drawn)
Emax [1]: 11%
EC50 [2]: 35 µM
Emax [3]: 110%
EC50 [4]: 4.2 µM
Ki [5]: 7.6 µM
Ki [6]: 11 µM
Ki [7]: 130 nM
Ki [8]: 110 nM

Cc1ccc(C(=O)N2CC3CNCC3C2)o1 (stereo not drawn)
Emax [1]: 7%
EC50 [2]: 57 µM
Emax [3]: 44%
EC50 [4]: 22 µM
Ki [5]: 8.2 µM
Ki [6]: > 10 µM
Ki [7]: 230 nM
Ki [8]: 42 nM

O=C(c1cccnc1)N1CC2CNCC2C1 (stereo not drawn)
Emax [1]: 55%
EC50 [2]: 29 µM
Emax [3]: 58%
EC50 [4]: 30 µM
Ki [5]: 20 µM
Ki [6]: 4.4 µM
Ki [7]: 160 nM
Ki [8]: 490 nM

O=C(c1ccc(Br)o1)N1C[C@H]2CN[C@@H](C2)C1
Emax [1]: 43%
EC50 [2]: 13 µM
Emax [3]: 50%
EC50 [4]: 4.8 µM
Ki [5]: 14 µM
Ki [6]: 3 µM
Ki [7]: 85 nM
Ki [8]: 45 nM

O=C(c1ccc(F)o1)N1CC2CNCC2C1 (stereo not drawn)
Emax [1]: 55%
EC50 [2]: 31 µM
Emax [3]: 140%
EC50 [4]: 5.8 µM
Ki [5]: 1.2 µM
Ki [6]: 12 µM
Ki [7]: 51 nM
Ki [8]: 8 nM

COc1ccc(C(=O)N2CC3CNCC(C3)C2)cc1
Emax [1]: 7%
EC50 [2]: 28 µM
Emax [3]: 6%
EC50 [4]: 4.3 µM
Ki [5]: 100 µM
Ki [6]: 27 µM
Ki [7]: 380 nM
Ki [8]: 60 nM

O=C(c1ccccc1)N1CC2CNCC2C1 (stereo not drawn)
Emax [1]: 18%
EC50 [2]: 28 µM
Emax [3]: 9%
EC50 [4]: 36 µM
Ki [5]: 20 µM
Ki [6]: 15 µM
Ki [7]: 1.1 nM
Ki [8]: 200 nM

Cc1ncoc1C(=O)N1CC2CNCC2C1 (stereo not drawn)
Emax [1]: 51%
EC50 [2]: 33 µM
Emax [3]: 110%
EC50 [4]: 6.8 µM
Ki [5]: 5.9 µM
Ki [6]: 22 µM
Ki [7]: 60 nM
Ki [8]: 8 nM

O=C(c1ncco1)N1CC2CNCC2C1 (stereo not drawn)
Emax [1]: 5%
EC50 [2]: 79 µM
Emax [3]: 65%
EC50 [4]: 31 µM
Ki [5]: 14 µM
Ki [6]: 100 µM
Ki [7]: 470 nM
Ki [8]: 340 nM

O=C(c1cc(Br)co1)N1CC2CNCC2C1 (stereo not drawn)
Emax [1]: 45%
EC50 [2]: 36 µM
Emax [3]: 15%
EC50 [4]: 6.5 µM
Ki [5]: 4.6 µM
Ki [6]: 7.7 µM
Ki [7]: 91 nM
Ki [8]: 16 nM

O=C(c1ccco1)N1CC2CNC(C2)C1 (stereo not drawn)
Emax [1]: 34%
EC50 [2]: 6.9 µM
Emax [3]: 65%
EC50 [4]: 2.6 µM
Ki [5]: 7.8 µM
Ki [6]: 1.7 µM

O=C(C1CC1)N1CC2CNCC2C1 (stereo not drawn)
Emax [1]: 130%
EC50 [2]: 4.9 µM
Emax [3]: 110%
EC50 [4]: 0.47 µM
Ki [5]: 0.84 µM
Ki [6]: 0.67 µM
Ki [7]: 7 nM
Ki [8]: 4 nM

O=C(c1ccco1)N1CC2CNCC(C2)C1
Emax [1]: 57%
EC50 [2]: 43 µM
Emax [3]: 65%
EC50 [4]: 1.9 µM
Ki [5]: 8.2 µM
Ki [6]: 8.1 µM
Ki [7]: 29 nM
Ki [8]: 20 nM

O=C(c1cc(Cl)co1)N1CC2CNCC2C1 (stereo not drawn)
Emax [1]: 53%
EC50 [2]: 56 µM
Emax [3]: 39%
EC50 [4]: 11 µM
Ki [5]: > 10 µM
Ki [6]: 7.1 µM
Ki [7]: 65 nM
Ki [8]: 11 nM

O=C(c1ccccc1)N1CC2CNCC(C2)C1
Emax [1]: 8%
EC50 [2]: 28 µM
Emax [3]: 8%
EC50 [4]: 100 µM
Ki [5]: 34 µM
Ki [6]: 100 µM
Ki [7]: 1700 nM
Ki [8]: 920 nM

O=C(c1ccco1)N1C[C@@H]2CN[C@H](C2)C1
Emax [1]: 130%
EC50 [2]: 15 µM
Emax [3]: 36%
EC50 [4]: 7.4 µM
Ki [5]: 5.5 µM
Ki [6]: 0.45 µM
Ki [7]: 11 nM
Ki [8]: 13 nM

O=C(c1ccno1)N1CC2CNCC2C1 (stereo not drawn)
Emax [1]: 17%
EC50 [2]: 66 µM
Emax [3]: 150%
EC50 [4]: 6.8 µM
Ki [5]: 19 µM
Ki [6]: 7.1 µM
Ki [7]: 47 nM
Ki [8]: 49 nM

O=C(c1occc1Br)N1CC2CNCC2C1 (stereo not drawn)
Emax [1]: 83%
EC50 [2]: 27 µM
Emax [3]: 90%
EC50 [4]: 4.2 µM
Ki [5]: 6.3 µM
Ki [6]: 3.8 µM
Ki [7]: 8 nM
Ki [8]: 2 nM

O=C(C1CC1)N1CC2CNC(C2)C1 (stereo not drawn)
Emax [1]: 150%
EC50 [2]: 4.2 µM
Emax [3]: 100%
EC50 [4]: 1.7 µM
Ki [5]: 0.35 µM
Ki [6]: 0.42 µM
Ki [7]: 1 nM
Ki [8]: 4 nM

— ChEMBL document CHEMBL2176988 (J Med Chem, 2012)
